Measured values reported in patent publication US9458133B2, “Isoquinolines as potassium ion channel inhibitors” (BRISTOL-MYERS SQUIBB COMPANY, priority 2013, dated 2016).

Molecular target: T1, human Kv 1.5 (Homo sapiens, UniProt P22460)
T1 construct: expressed in transfected cells; host or cells: mouse L-929 fibroblasts stably expressing human Kv1.5
Assay: Block of IKur current in patch clamped L-929 cells stably expressing human Kv1.5
Format: cell-based
Details: L929, 0.3 μM; patch clamped mammalian L-929 cells expressing human Kv1.5 (IKur); read-out: KV1_5% Inh L929 @0.3 μM
Excerpt: Synders, D. J. et al., “A rapidly activating and slowly inactivating potassium channel cloned from human heart: functional analysis after stable mammalian cell culture expression”, J. Gen. Physiol., 101:513-543 (1993). […]

T1 sequence (P22460 whole entry): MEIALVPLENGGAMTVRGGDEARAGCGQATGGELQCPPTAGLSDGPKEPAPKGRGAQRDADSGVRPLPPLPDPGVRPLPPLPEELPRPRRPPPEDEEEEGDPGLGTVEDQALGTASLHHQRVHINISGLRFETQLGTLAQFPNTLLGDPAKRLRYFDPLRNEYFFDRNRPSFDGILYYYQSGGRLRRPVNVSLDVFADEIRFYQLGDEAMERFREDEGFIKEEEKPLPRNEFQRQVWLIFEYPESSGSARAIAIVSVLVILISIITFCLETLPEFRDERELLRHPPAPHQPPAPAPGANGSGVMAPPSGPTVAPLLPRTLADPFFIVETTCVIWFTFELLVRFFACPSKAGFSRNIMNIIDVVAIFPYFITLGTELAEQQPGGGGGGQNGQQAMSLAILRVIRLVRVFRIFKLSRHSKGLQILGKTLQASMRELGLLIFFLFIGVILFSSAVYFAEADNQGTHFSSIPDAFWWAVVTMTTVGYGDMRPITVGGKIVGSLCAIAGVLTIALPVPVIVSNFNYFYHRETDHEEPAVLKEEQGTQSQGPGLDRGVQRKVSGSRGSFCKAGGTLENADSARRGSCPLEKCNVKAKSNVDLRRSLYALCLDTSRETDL

| SMILES | inhibition at 0.3 µM [%] |
| --- | --- |
| N#Cc1ccc(-c2cc3cccc(-c4ccccc4)c3c(NCc3ccccn3)n2)cc1 [Example 40, 4-(8-phenyl-1-(pyridin-2-ylmethylamino)isoquinolin-3-yl)benzonitrile] | 92.3 |
| NS(=O)(=O)c1cncc(-c2cc3cccc(-c4ccccc4)c3c(NCc3cccc(Cl)c3Cl)n2)c1 [Example 43, 5-(1-(2,3-dichlorobenzylamino)-8-phenylisoquinolin-3-yl)pyridine-3-sulfonamide] | 16.3 |
| CC(=O)Nc1cncc(-c2c(Cl)nc(NCc3ccccn3)c3c(-c4ccccc4)cccc23)c1 [Example 46, N-(5-(3-chloro-8-phenyl-1-(pyridin-2-ylmethylamino)isoquinolin-4-yl)pyridin-3-yl)acetamide] | 98.4 |
| NS(=O)(=O)Nc1ccccc1-c1cc2cccc(-c3ccccc3)c2c(NCc2ccccn2)n1 [Example 51] | 86.3 |
| COc1cccc(CNc2nc(-c3cncc(S(N)(=O)=O)c3)cc3cccc(-c4ccccc4)c23)c1 [Example 54, 5-(1-(3-methoxybenzylamino)-8-phenylisoquinolin-3-yl)pyridine-3-sulfonamide] | 82.4 |
| N#Cc1ccc(-c2c(Cl)nc(NCc3ccccn3)c3c(-c4ccccc4)cccc23)cc1 [Example 56, 4-(3-chloro-8-phenyl-1-(pyridin-2-ylmethylamino)isoquinolin-4-yl)benzonitrile] | 89.7 |
| NC(=O)c1ccc(-c2c(Cl)nc(NCc3ccccn3)c3c(-c4ccccc4)cccc23)cc1 [Example 57, 4-(3-chloro-8-phenyl-1-(pyridin-2-ylmethylamino)isoquinolin-4-yl)benzamide] | 98.6 |
| Nc1ccc(-c2cc3cccc(-c4ccccc4)c3c(NCc3ccccn3)n2)cn1 [Example 58, 3-(6-aminopyridin-3-yl)-8-phenyl-N-(pyridin-2-ylmethyl)isoquinolin-1-amine] | 22.8 |
| CC(=O)Nc1cccc(-c2c(Cl)nc(NCc3ccccn3)c3c(-c4ccccc4)cccc23)c1 [Example 60, N-(3-(3-chloro-8-phenyl-1-(pyridin-2-ylmethylamino)isoquinolin-4-yl)phenyl)acetamide] | 96.2 |
| COc1cc(-c2c(Cl)nc(NCc3ccccn3)c3c(-c4ccccc4)cccc23)ccn1 [Example 62, 3-chloro-4-(2-methoxypyridin-4-yl)-8-phenyl-N-(pyridin-2-ylmethyl)isoquinolin-1-amine] | 95.6 |
| CS(=O)(=O)Nc1ccc(-c2cc3cccc(-c4ccccc4)c3c(NCc3ccccn3)n2)cn1 [Example 63, N-(5-(8-phenyl-1-(pyridin-2-ylmethylamino)isoquinolin-3-yl)pyridin-2-yl)methanesulfonamide] | 53.2 |
| CC(=O)Nc1ccc(-c2cc3cccc(-c4ccccc4)c3c(NCc3ccccn3)n2)cn1 [Example 64, N-(5-(8-phenyl-1-(pyridin-2-ylmethylamino)isoquinolin-3-yl)pyridin-2-yl)acetamide] | 57.5 |
| NS(=O)(=O)c1ccccc1-c1cc2cccc(-c3ccccc3)c2c(NCc2ccccn2)n1 [Example 65, 2-(8-phenyl-1-(pyridin-2-ylmethylamino)isoquinolin-3-yl)benzenesulfonamide] | 50.5 |
| NC(=O)c1cccc(-c2c(Cl)nc(NCc3ccccn3)c3c(-c4ccccc4)cccc23)c1 [Example 66, 3-(3-chloro-8-phenyl-1-(pyridin-2-ylmethylamino)isoquinolin-4-yl)benzamide] | 99.3 |
| COc1ccc(-c2cc3cccc(-c4ccccc4)c3c(NCc3ccccn3)n2)cn1 [Example 67, 3-(6-methoxypyridin-3-yl)-8-phenyl-N-(pyridin-2-ylmethyl)isoquinolin-1-amine] | 96.9 |
| Nc1ccc(-c2c(Cl)nc(NCc3ccccn3)c3c(-c4ccccc4)cccc23)cc1 [Example 68, 4-(4-aminophenyl)-3-chloro-8-phenyl-N-(pyridin-2-ylmethyl)isoquinolin-1-amine] | 98.3 |
| NS(=O)(=O)c1cncc(-c2c(Cl)nc(NCc3ccccc3)c3c(-c4ccccc4)cccc23)c1 [Example 75, 5-(1-(benzylamino)-3-chloro-8-phenylisoquinolin-4-yl)pyridine-3-sulfonamide] | 97.3 |
| Nc1ccc(-c2c(Cl)nc(NCc3ccccn3)c3c(-c4ccccc4)cccc23)cn1 [Example 77, 4-(6-aminopyridin-3-yl)-3-chloro-8-phenyl-N-(pyridin-2-ylmethyl)isoquinolin-1-amine] | 99 |

Now from value to molecule:

| inhibition at 0.3 µM [%] | SMILES |
| --- | --- |
| 54.1 | NC(=O)c1cccc(-c2cc3cccc(-c4ccccc4)c3c(NCc3ccccn3)n2)c1 [Example 41, 3-(8-phenyl-1-(pyridin-2-ylmethylamino)isoquinolin-3-yl)benzamide] |
| 60.3 | NC(=O)c1ccc(-c2cc3cccc(-c4ccccc4)c3c(NCc3ccccn3)n2)cc1 [Example 42, 4-(8-phenyl-1-(pyridin-2-ylmethylamino)isoquinolin-3-yl)benzamide] |
| 18.6 | NS(=O)(=O)c1cccc(-c2cc3cccc(-c4ccccc4)c3c(NCCCc3ccccc3)n2)c1 [Example 44, 3-(8-phenyl-1-(3-phenylpropylamino)isoquinolin-3-yl)benzenesulfonamide] |
| 78.5 | Cc1ccccc1CNc1nc(-c2cncc(S(N)(=O)=O)c2)cc2cccc(-c3ccccc3)c12 [Example 45, 5-(1-(2-methylbenzylamino)-8-phenylisoquinolin-3-yl)pyridine-3-sulfonamide] |
| 98.1 | CS(=O)(=O)Nc1cncc(-c2c(Cl)nc(NCc3ccccn3)c3c(-c4ccccc4)cccc23)c1 [Example 47, N-(5-(3-chloro-8-phenyl-1-(pyridin-2-ylmethylamino)isoquinolin-4-yl)pyridin-3-yl)methanesulfonamide] |
| 98.6 | NC(=O)Nc1cncc(-c2c(Cl)nc(NCc3ccccn3)c3c(-c4ccccc4)cccc23)c1 [Example 48, 1-(5-(3-chloro-8-phenyl-1-(pyridin-2-ylmethylamino)isoquinolin-4-yl)pyridin-3-yl)urea] |
| 52.2 | Nc1ccccc1-c1cc2cccc(-c3ccccc3)c2c(NCc2ccccn2)n1 [Example 49, 3-(2-aminophenyl)-8-phenyl-N-(pyridin-2-ylmethyl)isoquinolin-1-amine] |
| 54.1 | NS(=O)(=O)c1cncc(-c2cc3cccc(-c4ccccc4)c3c(NCc3ccc(F)cc3F)n2)c1 [Example 50, 5-(1-(2,4-difluorobenzylamino)-8-phenylisoquinolin-3-yl)pyridine-3-sulfonamide] |
| 55.8 | NS(=O)(=O)c1cncc(-c2cc3cccc(-c4ccccc4)c3c(NCCOc3ccccc3)n2)c1 [Example 52, 5-(1-(2-phenoxyethylamino)-8-phenylisoquinolin-3-yl)pyridine-3-sulfonamide] |
| 40.1 | Cc1cc(C)cc(CNc2nc(-c3cncc(S(N)(=O)=O)c3)cc3cccc(-c4ccccc4)c23)c1 [Example 53, 5-(1-(3,5-dimethylbenzylamino)-8-phenylisoquinolin-3-yl)pyridine-3-sulfonamide] |
| 97.6 | NS(=O)(=O)c1ccc(-c2c(Cl)nc(NCc3ccccn3)c3c(-c4ccccc4)cccc23)cc1 [Example 55, 4-(3-chloro-8-phenyl-1-(pyridin-2-ylmethylamino)isoquinolin-4-yl)benzenesulfonamide] |
| 95.1 | N#Cc1cccc(-c2c(Cl)nc(NCc3ccccn3)c3c(-c4ccccc4)cccc23)c1 [Example 61, 3-(3-chloro-8-phenyl-1-(pyridin-2-ylmethylamino)isoquinolin-4-yl)benzonitrile] |
| 98.4 | CS(=O)(=O)Nc1ccc(-c2c(Cl)nc(NCc3ccccn3)c3c(-c4ccccc4)cccc23)cc1 [Example 69, N-(4-(3-chloro-8-phenyl-1-(pyridin-2-ylmethylamino)isoquinolin-4-yl)phenyl)methanesulfonamide] |
| 95.7 | CS(=O)(=O)Nc1cccc(-c2c(Cl)nc(NCc3ccccn3)c3c(-c4ccccc4)cccc23)c1 [Example 70, N-(3-(3-chloro-8-phenyl-1-(pyridin-2-ylmethylamino)isoquinolin-4-yl)phenyl)methanesulfonamide] |
| 67.7 | NS(=O)(=O)c1cncc(-c2cc3cccc(-c4ccccc4)c3c(N[C@H]3CCN(Cc4ccccc4)C3)n2)c1 [Example 71, (S)-5-(1-(1-benzylpyrrolidin-3-ylamino)-8-phenylisoquinolin-3-yl)pyridine-3-sulfonamide] |
| 16.1 | NS(=O)(=O)c1cncc(-c2cc3cccc(-c4ccccc4)c3c(NCc3csc(-c4ccccc4)n3)n2)c1 [Example 72, 5-(8-phenyl-1-((2-phenylthiazol-4-yl)methylamino)isoquinolin-3-yl)pyridine-3-sulfonamide] |
| 56.3 | NS(=O)(=O)c1cncc(-c2cc3cccc(-c4ccccc4)c3c(N[C@H]3CCC[C@@H]3OCc3ccccc3)n2)c1 [Example 73, 5-(1-((1S,2S)-2-(benzyloxy)cyclopentylamino)-8-phenylisoquinolin-3-yl)pyridine-3-sulfonamide] |
| 79.5 | Cc1cnc(CNc2nc(-c3cncc(S(N)(=O)=O)c3)cc3cccc(-c4ccccc4)c23)cn1 [Example 74, 5-(1-((5-methylpyrazin-2-yl)methylamino)-8-phenylisoquinolin-3-yl)pyridine-3-sulfonamide] |
| 97.2 | NS(=O)(=O)c1ccc(-c2cnc(NCc3ccccn3)c3c(-c4ccccc4)cccc23)cc1 [Example 76, 4-(8-phenyl-1-(pyridin-2-ylmethylamino)isoquinolin-4-yl)benzenesulfonamide] |
| 91 | NS(=O)(=O)c1cccc(-c2c(Cl)nc(NCc3ccccc3)c3c(-c4ccccc4)cccc23)c1 [Example 78, 3-(1-(benzylamino)-3-chloro-8-phenylisoquinolin-4-yl)benzenesulfonamide] |
